Measured values: patent US20240400549A1, “COMPOUNDS AND THEIR USES FOR TREATING NEURODEGENERATIVE DISEASE” (Academia Sinica, priority 2021, published 2024)

Molecular target: T1, endogenous TDP-43 protein (FL-TDP-43) (Mus musculus, UniProt Q921F2)
T1 construct: the level of endogenous TDP-43 protein (FL-TDP-43); endogenous in cells; host or cells: Neuro-2a (mouse neuroblastoma), also transfected with eGFP-C-TDP-43
Assay: Level of endogenous TDP-43 protein (FL-TDP-43) in Neuro-2a cells
Type: cell-based
Details: mock control 0.91±0.07
Procedure: Mouse neuroblastoma cell line (Neuro-2a) were cultured in Dulbecco's modified Eagle's medium (DMEM; Gibco) containing 2×10^−3 M glutamine, 10% heat inactivated fetal bovine serum (FBS), and 100 U mL^−1 penicillin-streptomycin (Gibco) at 37° C. in a humidified incubator containing 5% CO2. Alternatively, Neuro-2a cells were cultured in Dulbecco's modified Eagle's medium (DMEM; Invitrogen, Carlsbad, CA, USA) supplemented with 10% heat-inactivated FBS. The cells were incubated in a humidified incubator at 37° C. with 10% CO2. Transfection was performed using T-Pro NTR II (Ji-Feng Biotechnology, Taiwan) following the manufacturer's protocol.
Neuro-2a cells were seeded in a 6-well plate at a concentration of 2×10^5 cells/well and incubated overnight. Once the cells were attached, Neuro-2a cells were transfected with the eGFP-C-TDP-43 plasmid (2.2 μg) using Turbofect transfection reagent (Invitrogen) and treated with or without 5 μM test compound after 2 h transfection. After incubation for another 22 h, the transfected cells were harvested by RIPA buffer containing protease inhibitor (Roche) and sonicated on ice for 10 seconds. […] Aggregated eGFP-C-TDP-43 protein trapped by the CA membranes was determined by immunoblotting. […]
Proteins were separated using 12% Tris-glycine SDS-PAGE. […] The signals were visualized with luminescence (iBright™ FL1000 instrument, Invitrogen). […]

T1 sequence (Q921F2 whole entry): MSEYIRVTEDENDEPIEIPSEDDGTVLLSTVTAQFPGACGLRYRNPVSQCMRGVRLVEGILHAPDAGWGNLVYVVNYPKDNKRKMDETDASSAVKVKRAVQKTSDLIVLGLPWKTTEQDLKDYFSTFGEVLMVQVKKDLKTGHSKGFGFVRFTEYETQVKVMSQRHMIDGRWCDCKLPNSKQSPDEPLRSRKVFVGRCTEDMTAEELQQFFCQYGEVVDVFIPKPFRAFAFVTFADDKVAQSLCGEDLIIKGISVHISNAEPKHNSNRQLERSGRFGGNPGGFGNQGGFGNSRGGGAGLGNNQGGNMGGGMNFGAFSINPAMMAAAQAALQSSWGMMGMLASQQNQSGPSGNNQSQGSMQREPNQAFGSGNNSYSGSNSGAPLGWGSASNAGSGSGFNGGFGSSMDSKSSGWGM

Compound: CN(C)c1ccc(-c2nc3ccc(OCCOCCOCCNc4cccc5c4C(=O)N(C4CCC(=O)NC4=O)C5=O)cc3s2)cc1 (stereo not shown) [I-1b, 4-((2-(2-(2-((2-(4-(dimethylamino)phenyl)benzo[d]thiazol-6-yl)oxy)ethoxy)ethoxy)ethyl)amino)-2-(2,6-dioxopiperidin-3-yl)isoindoline-1,3-dione]
- level of endogenous TDP-43 protein (FL-TDP-43): 1.11±0.14
